# Like-named read-outs stand apart in the source and are kept apart here.
# Key:
# Assay type in all cases: biochemical
# [1] = target: T1, JAK1 (aa 850-1154, catalytic domain, GST-tag) (Homo sapiens, UniProt P23458); assay: JAK kinase assay (HTRF, phosphorylation of TK substrate-biotin), JAK1; conditions: ATP at Km (7 μM), read-out: JAK1 kinase inhibitory activity (EC50 indicator)
# T1 construct: JAK1 (aa 850-1154) and TYK2 (aa 871-1187) are expressed with an N-terminally fused GST-tag; GST (N); purchased Carna Biosciences, Inc; host or cells: baculovirus expression system
# T1 sequence (P23458 850-1154): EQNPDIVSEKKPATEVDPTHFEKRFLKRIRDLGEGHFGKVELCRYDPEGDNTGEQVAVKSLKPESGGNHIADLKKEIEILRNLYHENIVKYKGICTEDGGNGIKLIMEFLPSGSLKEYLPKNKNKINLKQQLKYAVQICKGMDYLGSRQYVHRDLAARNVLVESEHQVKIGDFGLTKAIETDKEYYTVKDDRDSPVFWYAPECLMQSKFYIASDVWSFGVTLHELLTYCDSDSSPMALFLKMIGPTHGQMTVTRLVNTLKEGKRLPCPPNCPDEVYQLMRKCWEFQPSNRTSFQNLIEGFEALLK
# Method: (§1) Human baculovirus-expressed JAK1, 2, 3 and TYK2 were purchased from Carna Biosciences, Inc. All four purified enzymes contain only the catalytic domain. JAK1 (aa 850-1154) and TYK2 (aa 871-1187) are expressed with an N-terminally fused GST-tag, and JAK2 and JAK3 with an N-terminally fused His-tag.
# (§2) Inhibition of phosphorylation of a synthetic peptide was measured in an HTRF-based assay using the TK substrate-Biotin from the Cisbio HTRFKinEASE TK kit. First, 2 μl of TK solution (TK substrate-biotin in kinase buffer [1× enzymatic buffer from HTRFKinEASE TK kit, 1 mM DTT]) is added to a plate containing 1 μl prediluted compound (final assay concentration DMSO: 0.75%). Then, 5 μl kinase-ATP mix (prepared in kinase buffer) is added to the wells and the plates are incubated at RT for 20-30 min. For all four kinases a concentration of ATP that corresponded to the Km for ATP was used. The final concentrations of buffers, substrate, kinase and ATP were: JAK1: 50 mM Hepes buffer pH 7.0, 0.01% BSA, 10 mM MgCl2, 1 mM DTT, 7 μM ATP, 50 nM SEB, 1 μM TK Substrate-Biotin and 5 ng JAK1; JAK2: 50 mM Hepes buffer pH 7.0, 0.01% BSA, 5 mM MgCl2, 1 mM DTT, 4 μM ATP, 1 μM TK Substrate-Biotin and 0.1 ng JAK2; JAK3: 50 mM Hepes buffer pH 7.0, 0.01% BSA, 5 mM MgCl2, 1 mM DTT, 2 μM ATP, 1 μM TK Substrate-Biotin and 0.3 ng JAK3; TYK2: 50 mM Hepes buffer pH 7.0, 0.01% BSA, 5 mM MgCl2, 1 mM DTT, 13 μM ATP, 50 nM SEB, 1 μM TK Substrate-Biotin and 0.8 ng TYK2. Thereafter, the kinase reaction is stopped by adding 4 μl detection mix (final concentrations: 50 mM Hepes buffer pH 7.0, 0.01% BSA, 0.8 M KF, 20 mM EDTA, 42 nM Streptavidin-XL665 and 1:400 STK Ab Cryptate) and the plates are incubated overnight in the dark. The HTRF signal is read using an Envision plate reader.
# (§3) In Table 1 selected JAK kinase inhibitory activities are listed with the following indicators: I: EC50<100 nM, II: 100 nM≦EC50≦500 nM and III: EC50>500 nM
# [2] = target: T2, TYK2 (aa 871-1187, catalytic domain, GST-tag) (Homo sapiens, UniProt P29597); assay: JAK kinase assay (HTRF, phosphorylation of TK substrate-biotin), TYK2; conditions: ATP at Km (13 μM), read-out: TYK2 kinase inhibitory activity (EC50 indicator)
# T2 construct: JAK1 (aa 850-1154) and TYK2 (aa 871-1187) are expressed with an N-terminally fused GST-tag; GST (N); purchased Carna Biosciences, Inc; host or cells: baculovirus expression system
# T2 sequence (P29597 871-1187): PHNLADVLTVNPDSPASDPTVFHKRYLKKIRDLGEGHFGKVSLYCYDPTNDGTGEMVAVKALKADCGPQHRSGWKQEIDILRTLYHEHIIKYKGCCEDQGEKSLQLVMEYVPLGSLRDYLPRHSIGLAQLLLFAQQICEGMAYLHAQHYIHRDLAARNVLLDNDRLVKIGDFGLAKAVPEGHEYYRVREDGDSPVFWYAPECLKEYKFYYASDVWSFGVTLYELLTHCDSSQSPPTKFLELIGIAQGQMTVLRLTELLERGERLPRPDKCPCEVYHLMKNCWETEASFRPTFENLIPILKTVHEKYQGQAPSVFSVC
# Method: as §1, §2, §3
# [3] = target: T3, JAK2 (catalytic domain, His-tag) (Homo sapiens, UniProt O60674); assay: JAK kinase assay (HTRF, phosphorylation of TK substrate-biotin), JAK2; conditions: ATP at Km (4 μM), read-out: JAK2 kinase inhibitory activity (EC50 indicator)
# T3 construct: All four purified enzymes contain only the catalytic domain; His (N); purchased Carna Biosciences, Inc; host or cells: baculovirus expression system
# T3 sequence (O60674 849-1124 limits assumed): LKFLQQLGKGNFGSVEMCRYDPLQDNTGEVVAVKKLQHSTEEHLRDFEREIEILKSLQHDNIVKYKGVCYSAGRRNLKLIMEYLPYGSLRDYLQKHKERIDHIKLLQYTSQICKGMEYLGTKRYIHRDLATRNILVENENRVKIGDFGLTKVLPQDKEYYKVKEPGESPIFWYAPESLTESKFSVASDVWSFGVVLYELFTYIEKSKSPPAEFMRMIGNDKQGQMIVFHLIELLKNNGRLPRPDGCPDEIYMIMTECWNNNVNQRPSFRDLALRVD
# Method: as §1, §2, §3
# [4] = target: T4, JAK3 (catalytic domain, His-tag) (Homo sapiens, UniProt P52333); assay: JAK kinase assay (HTRF, phosphorylation of TK substrate-biotin), JAK3; conditions: ATP at Km (2 μM), read-out: JAK3 kinase inhibitory activity (EC50 indicator)
# T4 construct: All four purified enzymes contain only the catalytic domain; His (N); purchased Carna Biosciences, Inc; host or cells: baculovirus expression system
# T4 sequence (P52333 822-1111 limits assumed): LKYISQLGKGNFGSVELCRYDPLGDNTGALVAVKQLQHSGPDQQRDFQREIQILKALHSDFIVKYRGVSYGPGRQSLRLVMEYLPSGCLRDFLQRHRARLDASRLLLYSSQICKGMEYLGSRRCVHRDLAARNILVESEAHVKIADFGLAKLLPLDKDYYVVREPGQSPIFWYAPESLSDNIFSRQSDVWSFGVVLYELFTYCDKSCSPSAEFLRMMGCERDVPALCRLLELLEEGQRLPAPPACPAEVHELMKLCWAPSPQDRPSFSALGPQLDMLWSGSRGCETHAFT
# Method: as §1, §2, §3
SMILES,EC50 ([1]; HTRF assay) [nM],EC50 ([2]; HTRF assay) [nM],EC50 ([3]; HTRF assay) [nM],EC50 ([4]; HTRF assay) [nM],EC50 [1] [nM],EC50 [2] [nM],EC50 [3] [nM],EC50 [4] [nM]
"O=C(c1ccc(C(F)(F)F)cc1)N1[C@@H]2CC[C@H]1CN(c1ncnc3[nH]ccc13)C2 [Example 1, [3-(7H-Pyrrolo[2,3-d]pyrimidin-4-yl)-3,8-diazabicyclo[3.2.1]oct-8-yl]-(4-trifluoromethylphenyl)methanone]",–,–,–,–,< 100,> 500,100 to 500,> 500
"O=C(c1ccccn1)N1CCN(c2ncnc3[nH]ccc23)CC12CC2 [Example 2, Pyridin-2-yl-[7-(7H-pyrrolo[2,3-d]pyrimidin-4-yl)-4,7-diazaspiro[2.5]oct-4-yl]methanone]",–,–,–,–,< 100,100 to 500,< 100,100 to 500
"O=C(c1ccncc1)N1CCN(c2ncnc3[nH]ccc23)CC12CC2 [Example 3, Pyridin-4-yl-[7-(7H-pyrrolo[2,3-d]pyrimidin-4-yl)-4,7-diazaspiro[2.5]oct-4-yl]-methanone]",–,–,–,–,< 100,100 to 500,< 100,100 to 500
"O=C(Cc1cccnc1)N1CCN(c2ncnc3[nH]ccc23)CC12CC2 [Example 4, 2-Pyridin-3-yl-1-[7-(7H-pyrrolo[2,3-d]pyrimidin-4-yl)-4,7-diazaspiro[2.5]oct-4-yl]ethanone]",–,–,–,–,100 to 500,> 500,< 100,100 to 500
"O=C(c1ccc(-c2ccccc2)cc1)N1CCN(c2ncnc3[nH]ccc23)CC12CC2 [Example 5, Biphenyl-4-yl-[7-(7H-pyrrolo[2,3-d]pyrimidin-4-yl)-4,7-diazaspiro[2.5]oct-4-yl]methanone]",–,–,–,–,< 100,> 500,< 100,100 to 500
"O=C(c1cccc(-c2ccccc2)c1)N1CCN(c2ncnc3[nH]ccc23)CC12CC2 [Example 6, Biphenyl-3-yl-[7-(7H-pyrrolo[2,3-d]pyrimidin-4-yl)-4,7-diazaspiro[2.5]oct-4-yl]methanone]",–,–,–,–,< 100,100 to 500,< 100,100 to 500
"O=C(C1CCOC1)N1CCN(c2ncnc3[nH]ccc23)CC12CC2 (centres unmarked) [Example 7, [7-(7H-Pyrrolo[2,3-d]pyrimidin-4-yl)-4,7-diazaspiro[2.5]oct-4-yl]-(tetrahydrofuran-3-yl)methanone]",–,–,–,–,100 to 500,> 500,< 100,100 to 500
"CC(C#N)c1cccc(C(=O)N2CCN(c3ncnc4[nH]ccc34)CC23CC3)c1 (centres unmarked) [Example 8, 2-{3-[7-(7H-Pyrrolo[2,3-d]pyrimidin-4-yl)-4,7-diazaspiro[2.5]octane-4-carbonyl]phenyl}propionitrile]",–,–,–,–,< 100,> 500,< 100,100 to 500
"CC(C)(C)OC(=O)N1[C@@H]2CC[C@H]1CN(c1ncnc3[nH]ccc13)C2 [Example 9, 3-(7H-Pyrrolo[2,3-d]pyrimidin-4-yl)-3,8-diaza-bicyclo[3.2.1]octane-8-carboxylic acid tert-butyl ester]",–,–,–,–,100 to 500,> 500,< 100,100 to 500
"CC(C)CNC(=S)N1[C@@H]2CC[C@H]1CN(c1ncnc3[nH]ccc13)C2 [Example 10, 3-(7H-Pyrrolo[2,3-d]pyrimidin-4-yl)-3,8-diaza-bicyclo[3.2.1]octane-8-carbothioic acid isobutyl-amide]",–,–,–,–,100 to 500,> 500,100 to 500,> 500
"S=C(NCc1ccccc1)N1[C@@H]2CC[C@H]1CN(c1ncnc3[nH]ccc13)C2 [Example 11, 3-(7H-Pyrrolo[2,3-d]pyrimidin-4-yl)-3,8-diazabicyclo[3.2.1]octane-8-carbothioic acid benzylamide]",–,–,–,–,< 100,> 500,< 100,100 to 500
"COCCOC(=O)N1[C@@H]2CC[C@H]1CN(c1ncnc3[nH]ccc13)C2 [Example 12, 3-(7H-Pyrrolo[2,3-d]pyrimidin-4-yl)-3,8-diazabicyclo[3.2.1]octane-8-carboxylic acid 2-methoxyethyl ester]",–,–,–,–,100 to 500,> 500,100 to 500,> 500
"O=C(C1CCS(=O)(=O)CC1)N1CCN(c2ncnc3[nH]ccc23)CC12CC2 [Example 13, (1,1-Dioxo-hexahydro-1lambda*6*-thiopyran-4-yl)[7-(7H-pyrrolo[2,3-d]pyrimidin-4-yl)-4,7-diazaspiro[2.5]oct-4-yl]methanone]",–,–,–,–,100 to 500,> 500,100 to 500,100 to 500

# More lines, now with the values ahead:
EC50 ([1]; HTRF assay) [nM],EC50 ([2]; HTRF assay) [nM],EC50 ([3]; HTRF assay) [nM],EC50 ([4]; HTRF assay) [nM],EC50 [1] [nM],EC50 [2] [nM],EC50 [3] [nM],EC50 [4] [nM],SMILES
> 500,> 500,> 500,> 500,–,–,–,–,"O=C(c1ccccc1)N1C[C@@H]2C[C@H]1CN2c1ncnc2[nH]ccc12 (racemic) [Example 253, Phenyl-[5-(7H-pyrrolo[2,3-d]pyrimidin-4-yl)-2,5-diaza-bicyclo[2.2.1]hept-2-yl]-methanone]"
–,–,–,–,100 to 500,> 500,< 100,100 to 500,"O=C(Cc1c[nH]c2ccccc12)N1CCN(c2ncnc3[nH]ccc23)CC12CC2 [Example 14, 2-(1H-Indol-3-yl)-1-[7-(7H-pyrrolo[2,3-d]pyrimidin-4-yl)-4,7-diazaspiro[2.5]oct-4-yl]ethanone]"
–,–,–,–,< 100,100 to 500,< 100,100 to 500,"N#Cc1ccc(C(=O)N2CCN(c3ncnc4[nH]ccc34)CC23CC3)cc1 [Example 15, 4-[7-(7H-Pyrrolo[2,3-d]pyrimidin-4-yl)-4,7-diazaspiro[2.5]octane-4-carbonyl]benzonitrile]"
–,–,–,–,< 100,100 to 500,< 100,< 100,"O=C(c1c[nH]c2ccccc12)N1CCN(c2ncnc3[nH]ccc23)CC12CC2 [Example 16, (1H-Indol-3-yl)-[7-(7H-pyrrolo[2,3-d]pyrimidin-4-yl)-4,7-diazaspiro[2.5]oct-4-yl]methanone]"
–,–,–,–,< 100,100 to 500,< 100,< 100,"NS(=O)(=O)CCC(=O)N1CCN(c2ncnc3[nH]ccc23)CC12CC2 [Example 17, 3-Oxo-3-[7-(7H-pyrrolo[2,3-d]pyrimidin-4-yl)-4,7-diazaspiro[2.5]oct-4-yl]propane-1-sulfonic acid amide]"
–,–,–,–,< 100,100 to 500,< 100,100 to 500,"N#CCc1ccc(C(=O)N2CCN(c3ncnc4[nH]ccc34)CC23CC3)cc1 [Example 18, {4-[7-(7H-Pyrrolo[2,3-d]pyrimidin-4-yl)-4,7-diazaspiro[2.5]octane-4-carbonyl]-phenyl}acetonitrile]"
–,–,–,–,< 100,100 to 500,< 100,< 100,"O=C(c1cnccn1)N1CCN(c2ncnc3[nH]ccc23)CC12CC2 [Example 19, Pyrazin-2-yl-[7-(7H-pyrrolo[2,3-d]pyrimidin-4-yl)-4,7-diazaspiro[2.5]oct-4-yl]methanone]"
